Assays:
Gαi protein [1] = assay: TR-FRET (HTRF) binding test of GTP analog-donor / anti-Gαi antibody DSV36S-d2, HEK293 Delta Opioid membranes; conditions: HEK293 membranes expressing Delta Opioid GPCR and Gαi, 1 μg per well; analog 1 nM; absence vs presence of GTPγS 100 μM
Text: (§1) • membrane preparations of cells expressing GPCRs and the G-alpha-i protein (Gαi) were purchased from Perkin Elmer or Euroscreen. The table below lists the cell backgrounds and references of the different samples used:
(§2) • the DSV36 antibody was generated by Cisbio Bioassays and is available rom Cisbio Bioassays on request (under the reference DSV36S). The antibody was labeled with the fluorescent probe d2 (red acceptor) compatible for TR-FRET detection. The DSV36S antibody binds at the switch II of the Gαi protein. • the GTP and GTPγS nucleotides were purchased from Sigma Aldrich (respective catalog references G8877 and G8634). • the 384-well, low volume, white plates with a white background were purchased from Greiner Bio One (catalog reference 784075). • the non-hydrolyzable/slowly hydrolyzable GTP analogs labeled with donor fluorophores of lanthanide complex type were synthesized at Cisbio Bioassays. Methods Preparation of the Reagents
Except for other specific mention, all the reagents were diluted in 50 mM Tris HCl pH 7.4, 10 mM MgCl2, 0.1% BSA, 10 mM NaCl, buffer. The membranes were prepared 4× to distribute 1 or 10 μg/well (amount specified in the key of each figure). The GTPγS nucleotide (non-specific signal condition) was prepared 6.67× to obtain a final concentration in the wells of 100 μM. The anti-Gαi antibody DSV36S-d2 used for the detection was prepared 4× to target the final concentration in the wells of 10 nM. […]
(§3) The non-specific signal (background fluorescence noise) was measured with wells containing an excess of GTPγS (10 or 100 μM).
(§4) The plates were incubated at 21° C. for 20 h and then the HTRF signal was measured on the PHERAstar reader (BMG Labtech) with the following configuration: • Module: HTRF (Excitation 337 nm, Emission 665 nm and 620 nm) • Excitation: laser, 40 flashes or lamp, 100 flashes • Reading window: delays: 60 μs-Integration: […] Signal Processing
(§5) From the raw signals at 665 nm and 620 nm, the HTRF Ratio was calculated according to the following formula: HTRF Ratio=[(Signal at 665 nm)/(Signal at 620 nm)]×10 000 Test Format […]

Gαi protein [2] = assay: TR-FRET (HTRF) binding test of GTP analog-donor / anti-Gαi antibody DSV36S-d2, CHO-K1 Delta Opioid membranes
Text: as §1, §2
Except for other specific mention, all the reagents were diluted in 50 mM Tris HCl pH 7.4, 10 mM MgCl2, 0.1% BSA, 10 mM NaCl, buffer. The membranes were prepared 4× to distribute 1 or 10 μg/well (amount specified in the key of each figure). The GTPγS nucleotide (non-specific signal condition) was prepared 6.67× to obtain a final concentration in the wells of 100 μM. The anti-Gαi antibody DSV36S-d2 used for the detection was prepared 4× to target the final concentration in the wells of 10 nM. The non-hydrolyzable/slowly hydrolyzable GTP analogs labeled with fluorescent donor probes (lanthanide complexes) were prepared 4× to target the final concentrations in the wells mentioned in the keys of each figure.
• Membranes expressing GPCR and the G protein: 5 μl • GTPγS buffer or nucleotide (for the non-specific signal condition): 3 μl • Non-hydrolyzable/slowly hydrolyzable GTP analog-donor: 5 μl • Anti-Gαi antibody-acceptor (DSV36S-d2): 5 μl • Buffer: 2 μl
as §3, §4
From the raw signals at 665 nm and 620 nm, the HTRF Ratio was calculated according to the following formula: HTRF Ratio=[(Signal at 665 nm)/(Signal at 620 nm)]×10 000 Test Format
FIG. 2 illustrates the test format used to detect the binding of the compounds of formula (I) to the G protein. […] When the two FRET partners (test compound and anti-Gα protein antibody) bind to the same Gα protein, a FRET signal appears (left part of the figure: “Total Signal”) and is distinguished from the non-specific signal (background noise corresponding to the right part of the figure: “Non-Specific Signal”), which comprises a large excess of unlabeled GTPγS (displacement of the fluorescent GTP analog). […]
GTPgN-octyl-C2 was used at a final concentration of 6 nM in the wells. The membranes were incubated in the absence or in the presence of a large excess of GTPγS (100 μM). […]
GTPgN-octyl-C2 was used at a final concentration of 2 or 6 nM in the wells. The membranes were incubated in the absence or in the presence of a large excess of GTPγS (100 μM).

Gαi protein [3] = assay: TR-FRET (HTRF) binding test of GTP analog-donor / anti-Gαi antibody DSV36S-d2, CHO-K1 Dopamine D2S membranes; conditions: CHO-K1 membranes expressing Dopamine D2S GPCR and Gαi, 10 μg per well; analog 6 nM; absence vs presence of GTPγS 100 μM
Text: as §1
• the DSV36 antibody was generated by Cisbio Bioassays and is available rom Cisbio Bioassays on request (under the reference DSV36S). The antibody was labeled with the fluorescent probe d2 (red acceptor) compatible for TR-FRET detection. […]
as §3, §4, §5

[4] = CHO-K1 membranes expressing Delta Opioid GPCR and Gαi, 10 μg per well, analog 6 nM, absence vs presence of GTPγS 100 μM

HTRF Ratio total signal/non-specific signal (Gαi protein [1])	Molecule	HTRF Ratio total signal/non-specific signal (Gαi protein [2]; [4])	further results
1.4	Nc1nc2c(ncn2[C@@H]2O[C@H](COP(=O)(O)OP(=O)(O)OP(=O)(O)NCCCCCCCCNc3nc(Cl)nc(Nc4ccc(-c5cc(-c6cccc(CN(CC(=O)O)CC(=O)O)n6)nc(-c6cccc(CN(CC(=O)O)CC(=O)O)n6)c5)cc4)n3)C(O)[C@@H]2O)c(=O)[nH]1 (some centres unmarked) [GTPgN-octyl-C3, GTP-gamma-N-octyl-C3]	–	–
–	GTP-gamma-N-octyl-C11 [GTPgN-octyl-C11]	7.6	–
1.7	Nc1nc2c(ncn2[C@@H]2O[C@H](COP(=O)(O)OP(=O)(O)OP(=O)(O)Nc3ccc(-c4cc(-c5cccc(CN(CC(=O)O)CC(=O)O)n5)nc(-c5cccc(CN(CC(=O)O)CC(=O)O)n5)c4)cc3)C(O)[C@@H]2O)c(=O)[nH]1 (some centres unmarked) [GTPgN—C3, GTP-gamma-N—C3]	–	–
–	GTP-gamma-N-octyl-thiosuccinimidyl-C2 [GTPgN-octyl-thiosuccinimidyl-C2]	–	HTRF Ratio total signal/non-specific signal (Gαi protein [2]; CHO-K1 Delta Opioid membranes 10 μg per well, analog 7.5 nM, buffer 60 mM MgCl2, 150 mM NaCl, presence vs absence of membrane preparation): 2.8
–	GTP-gamma-O-hexyl-C2 [GTPgO-hexyl-C2]	7.1	–
–	GTP-gamma-N-octyl-C2 [GTPgN-octyl-C2]	12.4	signal amplitude (S/N), effect of amount of membrane (Gαi protein [2]; CHO-K1 Delta Opioid membranes increased from 1 to 10 μg per well, FIG. 11A): increase in the signal amplitude (S/N) is observed; amplitude of the signal (S/N), effect of analog concentration (Gαi protein [2]; CHO-K1 Delta Opioid membranes, GTPgN-octyl-C2 increased from 2 to 6 nM, FIG. 11B): increase in the amplitude of the signal (S/N) is observed; HTRF Ratio total signal/non-specific signal (Gαi protein [3]): 3.8
–	GTP-gamma-N—C2 [GTPgN—C2]	16.6	–

Molecule	HTRF Ratio total signal/non-specific signal (Gαi protein [1])	HTRF Ratio total signal/non-specific signal (Gαi protein [2]; [4])	further results
GTP-gamma-O-hexyl-C3 [GTPgO-hexyl-C3]	1.3	–	–

From patent US12398158B2, “Fluorescent GTP analogues and use” (CISBIO BIOASSAYS, priority 2019, dated 2025)
